Experimental data taken from patent US6946297B2, “System for stabilizing samples” (priority 1999, dated 2005).

Legend:
Format in all cases: cell-based
[1] = tested on: Enterococcus faecalis; test: Survival of organisms in inoculated urine with preservative components, 24 hours at room temperature; set-up: key to Survival value enfa: 24 h count / control count; 1 = no change, 0.1 = 1-log decrease
Description: (§1) Antimicrobial activity for each active ingredient in the Chemistat I formulations was first determined for representative organisms listed in Table I. A culture for each organism of interest on blood agar was incubated at 36° C. overnight. About two to three colonies of the organism were transferred via sterile swab from the blood agar culture into a 5 ml Mueller-Hinton broth culture tube, which was then incubated on a rotator for about two to three hours at 36° C. Using a spectrophotometer set at a wavelength of 630 nm, the turbidity of broth culture was adjusted by the addition of Mueller-Hinton broth to an optical density equivalent to approximately 1×10^8 colony forming units (cfu)/ml to form an inoculum solution. An aliquot of the inoculum solution was plated onto blood agar to determine the actual control organism count. For each component listed in Table II, the component was added to filter-sterilized pooled normal urine at the concentration given in Table II to form a test sample. The test sample was then inoculated with an aliquot of the inoculum solution providing a final organism count of approximately 1×10^6 cfu/ml of test sample. Immediately after thorough mixing, an aliquot of the test sample was removed and serially diluted in PBS, and serial dilutions were plated onto blood agar to determine the Time Zero organism count. The inoculated plates were incubated at 36° C., and organism counts were recorded after 18-24 hours. After incubating the test sample for 24 hours at room temperature, an aliquot of the test sample was again removed, serially diluted in PBS and plated onto blood agar. After incubating for 18-24 hours at 36° C., organism counts were obtained. The organism count obtained after 24 hours incubation at room temperature was divided by the control organism count to provide the survival value of each organism as recorded in Table II. With respect to changes in microbial count, a survival value of 1 represents no change; a survival value of 0.1 indicates a 1-log decrease; a survival value of 10 indicates a 1-log increase; and a survival value of 0.000 represents a decrease of greater than or equal to 3-logs. In comparison, the lower the survival value, the greater the component's capacity for controlling organism growth.

[2] = tested on: Escherichia coli; test: as above; set-up: key to Survival value esco: 24 h count / control count; 1 = no change, 0.1 = 1-log decrease
Description: as §1

[3] = tested on: Candida albicans; test: as above; set-up: key to Survival value caal: 24 h count / control count; 1 = no change, 0.1 = 1-log decrease
Description: as §1

[4] = tested on: Klebsiella pneumoniae; test: as above; settings: for Concentration inhibitory against Klebsiella pneumoniae (ineffective up to = >): component alone
Description: as §1

[5] = tested on: Proteus vulgaris; test: as above; settings: for Concentration inhibitory against Proteus vulgaris (ineffective up to = >): component alone
Description: as §1

[6] = tested on: Pseudomonas aeruginosa; test: as above; settings: for Concentration inhibitory against Pseudomonas aeruginosa (ineffective up to = >): component alone
Description: as §1

[7] = tested on: Enterobacter aerogenes; test: as above; set-up: key to Survival value enae: 24 h count / control count; 1 = no change, 0.1 = 1-log decrease
Description: as §1

[8] = tested on: microorganisms of interest; test: Antimicrobial (cidal) activity against the organisms of interest taken together; settings: component alone
Description: as §1, with “With respect to changes in microbial count, a survival value of 1 represents no change; a survival value of 0.1 indicates a 1-log decrease; a survival value of 10 indicates a 1-log increase; and a survival value of 0.000 represents a decrease of greater than or equal to 3-logs. In comparison, the lower the survival value, the greater the component's capacity for controlling organism growth.” left out

CCOC(=O)c1ccc(O)cc1 [Ethyl parahydroxybenzoate, ethyl parahydroxybenzoate]
Concentration inhibitory against Enterococcus faecalis (ineffective up to = >) ([1]; component alone): > 1 mg/mL
Survival value enfa ([1]; single component at 0.5 mg/ml): tntc
Survival value enfa ([1]; single component at 1 mg/ml): tntc
Concentration with cidal activity against Escherichia coli ([2]; component alone): 1 mg/mL
Survival value esco ([2]; single component at 0.5 mg/ml): tntc
Survival value esco ([2]; single component at 1 mg/ml): 0.000
Concentration inhibitory against Candida albicans (ineffective up to = >) ([3]; component alone): 0.5 mg/mL
Survival value caal ([3]; single component at 0.5 mg/ml): 0.362
Concentration inhibitory against Klebsiella pneumoniae (ineffective up to = >) [4]: > 1 mg/mL
Survival value klpn ([4]; single component at 0.5 mg/ml): tntc
Concentration inhibitory against Proteus vulgaris (ineffective up to = >) [5]: > 1 mg/mL
Survival value prvu ([5]; single component at 0.5 mg/ml): tntc
Concentration inhibitory against Pseudomonas aeruginosa (ineffective up to = >) [6]: > 1 mg/mL
Survival value psae ([6]; single component at 0.5 mg/ml): tntc
Survival value psae ([6]; single component at 1 mg/ml): tntc
Concentration inhibitory against Enterobacter aerogenes (ineffective up to = >) ([7]; component alone): 1 mg/mL
Survival value enae ([7]; single component at 1 mg/ml): 0.208

CCC(=O)[O-].[Na+] [Sodium propionate, sodium propionate]
Concentration inhibitory against Enterococcus faecalis (ineffective up to = >) ([1]; component alone): 10 mg/mL
Survival value enfa ([1]; single component at 5 mg/ml): tntc
Survival value enfa ([1]; single component at 10 mg/ml): 2.702
Concentration inhibitory against Escherichia coli (ineffective up to = >) ([2]; component alone): > 10 mg/mL
Survival value esco ([2]; single component at 5 mg/ml): tntc
Survival value esco ([2]; single component at 10 mg/ml): tntc
Concentration inhibitory against Candida albicans (ineffective up to = >) ([3]; component alone): > 10 mg/mL
Survival value caal ([3]; single component at 5 mg/ml): tntc
Concentration inhibitory against Klebsiella pneumoniae (ineffective up to = >) [4]: > 10 mg/mL
Survival value klpn ([4]; single component at 5 mg/ml): tntc
Concentration inhibitory against Proteus vulgaris (ineffective up to = >) [5]: > 10 mg/mL
Survival value prvu ([5]; single component at 5 mg/ml): tntc
Concentration inhibitory against Pseudomonas aeruginosa (ineffective up to = >) [6]: 10 mg/mL
Survival value psae ([6]; single component at 5 mg/ml): tntc
Survival value psae ([6]; single component at 10 mg/ml): 0.341
Concentration inhibitory against Enterobacter aerogenes (ineffective up to = >) ([7]; component alone): > 10 mg/mL

CC=Cc1ccc(O)c(OC)c1 [Isoeugenol, isoeugenol]
Concentration with cidal activity against Enterococcus faecalis ([1]; component alone): > 4.6 μl/ml
Survival value enfa ([1]; single component at 0.2 μl/ml): tntc
Survival value enfa ([1]; single component at 0.5 μl/ml): tntc
Survival value enfa ([1]; single component at 1.5 μl/ml): tntc
Survival value enfa ([1]; single component at 2.5 μl/ml): 0.750
Survival value enfa ([1]; single component at 4.6 μl/ml): 0.460
Concentration with cidal activity against Escherichia coli ([2]; component alone): 1.5 μl/ml
Survival value esco ([2]; single component at 0.2 μl/ml): tntc
Survival value esco ([2]; single component at 0.5 μl/ml): tntc
Survival value esco ([2]; single component at 1.5 μl/ml): 0.000
Survival value esco ([2]; single component at 2.5 μl/ml): 0.000
Survival value esco ([2]; single component at 4.6 μl/ml): 0.000
Concentration required for cidal antimicrobial action for many organisms of interest [8]: greater than 1.5 μg/ml
Concentration with cidal activity against Candida albicans ([3]; component alone): 2.5 μl/ml
Survival value caal ([3]; single component at 0.2 μl/ml): 0.160
Survival value caal ([3]; single component at 0.5 μl/ml): 2.786
Survival value caal ([3]; single component at 1.5 μl/ml): 0.152
Survival value caal ([3]; single component at 2.5 μl/ml): 0.000
Survival value caal ([3]; single component at 4.6 μl/ml): 0.000
Survival value klpn ([4]; single component at 0.2 μl/ml): tntc
Survival value prvu ([5]; single component at 0.2 μl/ml): tntc
Survival value psae ([6]; single component at 0.2 μl/ml): tntc
Survival value psae ([6]; single component at 1.5 μl/ml): tntc
Survival value psae ([6]; single component at 2.5 μl/ml): 0.398
Concentration with cidal activity against Enterobacter aerogenes ([7]; component alone): 2.5 μl/ml
Survival value enae ([7]; single component at 1.5 μl/ml): tntc
Survival value enae ([7]; single component at 2.5 μl/ml): 0.000
